From patent US20240408064A1, “RAS INHIBITORS, COMPOSITIONS AND METHODS OF USE THEREOF” (GENETOLEAD INC., priority 2021, published 2024)
Several values for one entry are separate records, joined by “and”; a condition that tells them apart may be missing. Equal values may be shown once.

Tests used:
Format in all cases: binding
HRas^G12V [1] = target: T1, HRas^G12V (Homo sapiens (Human), UniProt P01112, G12V); experiment: 19F DLB (ligand-observed 19F NMR) score; design: scale not given here
Procedure, shortened: (§1)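 Fragments were pooled at 240 μM each with 50 μM HRas G12V in 25 mM sodium phosphate pH 7.4, 150 mM NaCl, 5 mM MgCl2, 1 mM TCEP-d16, 10% D2O, and screened by 1H-decoupled 1D 19F NMR at 600 MHz (64 scans, 5 s relaxation delay). T2-CPMG data were collected with 1 ms echoes and eight delays from 1 to 800 ms.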

HRas^G12V [2] = target: T1, HRas^G12V; experiment: 19F T2-CPMG NMR score
Procedure, shortened: as §1

HRas^G12V [3] = target: T1, HRas^G12V; experiment: Dissociation constant by NMR (1H/15N Fast-HSQC, 1H 1D protein-observed); details: HRas^G12V; read-out: NMR Kd
Method: All NMR experiments were collected using 3 mm NMR tubes on a 600 MHz Bruker Avance III spectrometer equipped with a QCI helium cryoprobe and a SampleJet sample changer. The buffer used for NMR experiments was 25 mM sodium phosphate pH 7.4, 150 mM NaCl, 5 mM MgCl2, 1 mM TCEP-d16, 10% D2O. Data were processed using Bruker TopSpin.
^1H/^15N Fast-HSQC experiments (Mori et al., Journal of Magnetic Resonance, Series B, Volume 108, Issue 1, July 1995, Pages 94-98) were recorded at a protein concentration of 50-100 μM.
Dissociation constants were obtained by monitoring changes in chemical shifts as a function of ligand concentration. The changes in chemical shifts (d) were calculated according to the following equation (Williamson, Progress in Nuclear Magnetic Resonance Spectroscopy, Volume 73, August 2013, Pages 1-16): d=√(1/2[δ_H^2+[…]]), Where δ are the changes in chemical shift in ppm for ^1H and ^15N and the correction factor (α) was set at 0.15.
^1H 1D protein-observed experiments were recorded with 15-50 μM protein. The standard Bruker 1D ^1H sequence with excitation sculpting (zgesgp) was employed. A relaxation delay of 1 s was employed in order to use 256 scans while still keeping experimental time fairly short. Changes in protein chemical shift or peak intensity in the methyl region were monitored against compound concentration.

KRAS^G12D-GDP [4] = target: T2, KRAS^G12D-GDP (Homo sapiens (Human), UniProt P01116, G12D); experiment: 19F DLB score, KRAS^G12D-GDP; design: scale not given here
T2 sequence (P01116-2 other isoform, or with tags, fused parts or gaps G12D): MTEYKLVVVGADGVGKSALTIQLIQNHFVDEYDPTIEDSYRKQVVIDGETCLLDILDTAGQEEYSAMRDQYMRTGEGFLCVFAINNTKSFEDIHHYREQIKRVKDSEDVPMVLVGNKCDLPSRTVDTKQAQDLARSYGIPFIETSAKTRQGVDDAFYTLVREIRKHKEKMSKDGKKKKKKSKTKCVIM
Method: (§2) Since the fragment library was curated using phosphate buffer, 25 mM sodium phosphate pH 7.4, 150 mM NaCl, 5 mM MgCl2, 1 mM TCEP-d16, 10% D2O Fresh TCEP was used for experiments. Screening was performed using ^1H-decoupled 1D ^19F experiment Bruker experiment (zgfhigqn.2) with 64 scans and a relaxation delay of 5 seconds. 50 μM HRas^G12V and 240 μM of each fragment in pools (mixtures) were used.
(§3) Hit confirmation was performed using the same ^19F experiment as the screen. Ligand-observed 1D ^1H, protein-observed 1D ^1H, ^1H T2-CPMG as well as Saturation Transfer Difference (STD) experiments were also run on the same samples. Ligand-observed 1D ^1H was run using the standard Bruker sequence with excitation sculpting (zgesgp) with a relaxation delay of 10 seconds and 16 scans per spectrum. Protein-observed 1D ^1H was performed using the same sequence with a relaxation delay of 1 second and 256 scans in order to increase the signal-to-noise of the protein resonances, while keeping the experimental time relatively short. The ^1H T2-CPMG experiment employed a modified version of the Bruker 1D ^1H zgesgp experiment with the addition of a CPMG pulse train after the first 90° excitation pulse. Total duration for each spin echo was fixed at 1 ms (τ=500 μs), while the number of echoes in the pulse train was varied according to the total time (T). The number of scans for each spectrum was 4 and eight delay times were run on each sample, ranging from 1 ms to 800 ms.
(§4) The activity of compounds of the invention regarding KRAS^G12D-GDP was measured in the same as in Example 80. The results obtained with the compounds in the various assays described above are depicted in Table 23.

KRAS^G12D-GDP [5] = target: T2, KRAS^G12D-GDP; experiment: 19F T2-CPMG score, KRAS^G12D-GDP
Method: as §2, §3, §4

T1 sequence (P01112 1-166 G12V): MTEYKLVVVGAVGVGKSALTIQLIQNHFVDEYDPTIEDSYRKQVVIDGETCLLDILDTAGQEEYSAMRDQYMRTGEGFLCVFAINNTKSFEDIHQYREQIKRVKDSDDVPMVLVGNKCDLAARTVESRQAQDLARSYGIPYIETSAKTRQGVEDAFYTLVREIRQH

SMILES | 19F DLB Score (HRas^G12V [1]) | 19F T2-CPMG Score (HRas^G12V [2]) | Kd (HRas^G12V [3]) [µM] | 19F DLB Score (KRAS^G12D-GDP [4]) | 19F T2-CPMG Score (KRAS^G12D-GDP [5])
CC(C)N1CCC(NC(=O)Cc2c[nH]c3cc(F)ccc23)CC1 [Compound 10018] | 1.64 and 1.79 and 1.93 and 1.86 and 1.71 | 10.62 and 11.88 and 18.24 and 9.37 and 15.13 | 3030 to 3700 | 1.73 | 12.20
CN(C)CCOc1cccc(NC(=O)Cc2c[nH]c3cc(F)ccc23)c1 [Compound 10095, N-(3-(2-(dimethylamino)ethoxy)phenyl)-2-(6-fluoro-1H-indol-3-yl)acetamide] | 4.19 | 33.38 | 36 | 3.56 | >LOQ
O=C(Cc1c[nH]c2cc(F)ccc12)N1CCC(O)CC1 [Compound 10086] | 3.04 | 32.13 | 2370 to 4000 | 3.33 | >LOQ
CN(C)CC(=O)Nc1cccc(NC(=O)Cc2c[nH]c3cc(F)ccc23)c1 [compound 10097] | 3.84 | 38.49 | 108 | 4.36 | >LOQ
